In PubChem BioAssay AID720512 (Broad Institute, 2013):
Active and inactive are the calls of the source. The rule behind the calls is not given here.

What follows are compounds tested against Toxin B (TcdB) glycohydrolase, Clostridioides difficile 630 (assay: TcdB glycohydrolase inhibitors, dose response, biochemical, cherry-pick, plate reader (AID 720512)). Details: recombinant TcdB glycohydrolase activity.
In the case of `COc1ccc(C2(CNC(=O)c3ccc(OC)c([N+](=O)[O-])c3)CCCCC2)cc1OC`, the AC50 is reported as > 39 µM (inactive). `COc1ccc(/C=C(/C#N)C(=O)Nc2ccc(O)cc2)cc1C(=O)O` was tested, and the AC50 was > 39 µM (inactive). `CN1c2ccc(-c3ccccc3)cc2[C@H]2[C@H](CCN2C(=O)CN2CCOCC2)[C@H]1CO` was tested, and the AC50 was > 39 µM (inactive). For `CCC(=O)N1CC[C@@H]2[C@H]1c1cc(-c3ccc(OC)cc3)ccc1N(C)[C@H]2CO`, the AC50 was > 42 µM (inactive). With `Cc1cc(N/N=C/c2ccc(O)cc2)c2cccc(C)c2n1` the AC50 was > 39 µM (inactive). With `CN(C)CCNC(=O)c1cc2c(s1)-c1ccc(Cl)cc1SC2` the AC50 was > 39 µM (inactive). For `CN1/C(=C/C=C/c2n(C)c3cc([N+](=O)[O-])c([N+](=O)[O-])cc3[n+]2C)C(C)(C)c2ccccc21`, the AC50 was > 39 µM (inactive). With `C/C(=N\Nc1cc(N2CCOCC2)ncn1)c1ccc(O)cc1` the AC50 was > 39 µM (inactive).

Same assay, conditions: recombinant TcdB glycohydrolase activity, at 19.5 µM (top of the series)
With `O=C(C[C@H]1CC[C@H]2[C@@H](COC[C@H](O)CN2C(=O)Nc2ccc(Cl)c(Cl)c2)O1)NCc1ccncc1` the “activity change, negative = inhibition” value was “inactive”. `Cc1ccc(NNC(=O)c2ccno2)c(C)c1` was tested, and the “activity change, negative = inhibition” value was “inactive”. With `COc1ccccc1/C=C/c1onc(C)c1S(=O)(=O)N1CCC(C(=O)NC2CCCCCC2)CC1` the “activity change, negative = inhibition” value was “inactive”. In the case of `Cn1cc(S(=O)(=O)CC(=O)N2CCCc3ccccc32)c2ccccc21`, the “activity change, negative = inhibition” value is reported as “inactive”. `Cc1cccc(-n2c(=O)c3ccccc3n3c(=S)[nH]nc23)c1C` was tested, and the “activity change, negative = inhibition” value was “inactive”. With `CC(OC(=O)c1cccnc1Cl)C(=O)NC1CCCCC1` (centres undefined) the “activity change, negative = inhibition” value was “inactive”. In the case of `C=CC[C@@H](CC(=O)N(CCO)Cc1ccccc1)C(=O)NC[C@@H](OC(=O)[C@@H](CC=C)CC(=O)OC(C)(C)C)c1ccccc1`, the “activity change, negative = inhibition” value is reported as “inactive”. `O=c1[nH]nc(-c2cc(-c3ccccc3)nc3ccccc23)o1` was tested, and the “activity change, negative = inhibition” value was “inactive”. For `COc1cccc(C(=O)COC(=O)c2ccc(NC(=O)c3ccccc3)cc2)c1`, the “activity change, negative = inhibition” value was “inactive”. `C[C@H](CO)N1C[C@H](C)[C@@H](CN(C)C(=O)Nc2ccc(C(F)(F)F)cc2)Oc2c(cccc2N(C)C)C1=O` was tested, and the “activity change, negative = inhibition” value was “inactive”. With `Cc1ccc2ccc[n+](Cc3ccccc3)c2c1` the “activity change, negative = inhibition” value was “inactive”. In the case of `CC1(C)OC2C(O1)[C@@H](CO)O[C@H]2n1cnc2c(N)ncnc21` (some centres undefined), the “activity change, negative = inhibition” value is reported as “inactive”. For `COc1ccc(NC2CCCN(C(=O)CN3CCOC3=O)C2)cc1OC` (centres undefined), the “activity change, negative = inhibition” value was “inactive”. `Cc1ccc(C2=NS(=O)(=O)N(C)C(C(=O)NCc3ccc4c(c3)OCO4)=C2)cc1` was tested, and the “activity change, negative = inhibition” value was “inactive”. With `CCN(C(=O)CN1C(=O)NC2(CCC(C)CC2)C1=O)C1CCCCC1` (centres undefined) the “activity change, negative = inhibition” value was “inactive”. For `CCC(=O)Nc1ccc2c(c1)OC[C@H](C)N(C(=O)NC(C)C)C[C@@H](C)[C@@H](OC)CN(C)C2=O`, the “activity change, negative = inhibition” value was “inactive”. `COc1cc(/C=N/NC(=O)c2c(C)nc3ccc(Cl)cn23)cc(OC)c1OC` was tested, and the “activity change, negative = inhibition” value was “inactive”. With `CC(=O)C[C@H]1c2ccccc2S(=O)(=O)N1C1CCCCC1` the “activity change, negative = inhibition” value was “inactive”. For `C/C(=N\NC(N)=S)c1ccc2c(c1)OCCO2`, the “activity change, negative = inhibition” value was “inactive”. In the case of `Cc1cc(C(=O)Nc2ncc(C)s2)c2ccccc2n1`, the “activity change, negative = inhibition” value is reported as “inactive”. `CCOC(=O)N1CCC(c2cc(=O)n3[nH]c(-c4ccccc4)cc3n2)CC1` was tested, and the “activity change, negative = inhibition” value was “inactive”. `CCCNC(=O)Nc1ccc2c(c1)C(=O)N(C)[C@H]1CC[C@H](CC(=O)NC3CCC3)O[C@@H]1CO2` was tested, and the “activity change, negative = inhibition” value was “inactive”. For `CCc1ccc(NC(=O)C2=CC(c3ccc(OC)cc3)=NS(=O)(=O)N2C)cc1`, the “activity change, negative = inhibition” value was “inactive”. `CCc1ccc(Nc2n[n+](-c3ccccc3)c(-c3ccc(OC)c(Br)c3)s2)cc1` was tested, and the “activity change, negative = inhibition” value was “inactive”. For `COc1cc(/C=N/Nc2nc3ccccc3[nH]2)ccc1O`, the “activity change, negative = inhibition” value was “inactive”. For `O=C1NN=C2CCCCCCC12` (centres undefined), the “activity change, negative = inhibition” value was “inactive”. With `CC(C)(C)N1[C@@H](CC(=O)O)c2cc(C(F)(F)F)ccc2S1(=O)=O` the “activity change, negative = inhibition” value was “inactive”. In the case of `Cc1ccccc1C(C(=O)NC1CCCCC1)N(C(=O)c1ccccn1)c1cccnc1` (centres undefined), the “activity change, negative = inhibition” value is reported as “inactive”. In the case of `CN1CC(=O)N/C1=N\C(=O)Nc1ccc(O)cc1`, the “activity change, negative = inhibition” value is reported as “inactive”. `Cn1ncc(Cl)c1C(=O)N/N=C/c1cccc(OC2CSC2)c1` was tested, and the “activity change, negative = inhibition” value was “inactive”. With `Cc1ccc(S(=O)(=O)/N=C(/Nc2cccc(O)c2)c2ccccc2)cc1` the “activity change, negative = inhibition” value was “inactive”. For `O=C(C[n+]1ccccc1)N/N=C/c1ccc(O)cc1`, the “activity change, negative = inhibition” value was “inactive”. In the case of `COC(=O)Cc1ccc(NC(=S)NCc2ccco2)cc1`, the “activity change, negative = inhibition” value is reported as “inactive”. `CN1C(=O)c2cc(NC(=O)c3cccc(F)c3)ccc2OC[C@@H]2O[C@@H](CC(=O)NCC3CCCCC3)CC[C@@H]21` was tested, and the “activity change, negative = inhibition” value was “inactive”. With `CC1CC(=O)N(c2ccc(NCCc3ccc(O)cc3)c([N+](=O)[O-])c2)C1=O` (centres undefined) the “activity change, negative = inhibition” value was “inactive”. In the case of `CCSc1nnc(NC(=O)C2CC2c2ccccc2)s1` (centres undefined), the “activity change, negative = inhibition” value is reported as “inactive”. `CC(C)Cc1cc(C(=O)N2CCCC(CO)(Cc3ccc(F)cc3)C2)no1` (centres undefined) was tested, and the “activity change, negative = inhibition” value was “inactive”. In the case of `CCCCn1c(CN2CCN(C(=O)c3ccco3)CC2)nc2c1c(=O)n(C)c(=O)n2C`, the “activity change, negative = inhibition” value is reported as “inactive”. For `CC(C)Cc1[nH]c(=O)c(C#N)c2c1CCCC2`, the “activity change, negative = inhibition” value was “inactive”. `Cc1ccc(C2=NS(=O)(=O)N(C)C(C(=O)NC(C)c3ccccc3)=C2)cc1` (centres undefined) was tested, and the “activity change, negative = inhibition” value was “inactive”. `C[C@H](NC(=O)c1cc2c(cn1)[nH]c1ccccc12)C(=O)O` was tested, and the “activity change, negative = inhibition” value was “inactive”. With `CSc1ccc(/C=N/N2CCN(Cc3ccc(Cl)cc3)CC2)cc1` the “activity change, negative = inhibition” value was “inactive”. In the case of `COc1ccc(/C=C2/C(=O)C(C)(C(C)C)CCC2C)cc1` (centres undefined), the “activity change, negative = inhibition” value is reported as “inactive”. With `COc1cc(/C=N/NC(=O)C2(O)c3ccccc3-c3ccccc32)ccc1O` the “activity change, negative = inhibition” value was “inactive”. For `CC[n+]1ccc(/C=C/c2ccc(N(C)C)cc2)c2ccccc21`, the “activity change, negative = inhibition” value was “inactive”. With `Cc1ccc(CNC(=O)Nc2cccc(C)c2)cc1` the “activity change, negative = inhibition” value was “inactive”. `Cc1ccc(C(=O)NC(=O)OCCn2c(C)cnc2[N+](=O)[O-])cc1` was tested, and the “activity change, negative = inhibition” value was “inactive”. With `Cc1ccc(-c2cc(C(=O)NNC(=O)c3csc(N4CCOCC4)n3)c3ccccc3n2)cc1` the “activity change, negative = inhibition” value was “inactive”. `CC12CCC(=O)N1C(C(=O)OCc1c(Cl)cccc1Cl)CS2` (centres undefined) was tested, and the “activity change, negative = inhibition” value was “inactive”. With `COc1cc(/C=N/NC(=O)C2COc3ccccc3O2)ccc1O` (centres undefined) the “activity change, negative = inhibition” value was “inactive”. `C=CCn1c(C)cc(C(=O)COC(=O)CCc2cc(OC)c(OC)c(OC)c2)c1C` was tested, and the “activity change, negative = inhibition” value was “inactive”. With `O=C(CSc1nnc(-c2ccncc2)o1)N1CCCCCC1` the “activity change, negative = inhibition” value was “inactive”. With `CN(c1ccccc1)S(=O)(=O)c1cccc(C(=O)NCCc2ccc(O)c(O)c2)c1` the “activity change, negative = inhibition” value was “inactive”. For `Cc1ccc(C(=O)Nc2ccc(O)cc2C(=O)O)cc1C`, the “activity change, negative = inhibition” value was “inactive”. `CCCCNC(=O)C1CCN(S(=O)(=O)c2c(C)noc2/C=C\c2ccc(OC)cc2)CC1` was tested, and the “activity change, negative = inhibition” value was “inactive”. For `COc1cccc(C(CNc2ccc(S(=O)(=O)N3CCN(C)CC3)cc2[N+](=O)[O-])N(C)C)c1` (centres undefined), the “activity change, negative = inhibition” value was “inactive”. `O=C(O)c1cc(S(=O)(=O)Nc2ccc3cn[nH]c3c2)ccc1Cl` was tested, and the “activity change, negative = inhibition” value was “inactive”. For `NC(=O)c1ccc2c(=O)c(O)c(-c3cc(Cl)c(N)c(Cl)c3)[nH]c2c1`, the “activity change, negative = inhibition” value was “inactive”. For `CC(C)(C)c1cc(Cl)c(O)c(NC(=S)NC(=O)c2cccnc2)c1`, the “activity change, negative = inhibition” value was “inactive”. In the case of `Cc1cc(C)nc(/N=C(\N)Nc2ccccc2-c2ccccc2)n1`, the “activity change, negative = inhibition” value is reported as “inactive”. For `Cc1cc(C)c(S(=O)(=O)N2CCCCC2C(=O)O)c(C)c1` (centres undefined), the “activity change, negative = inhibition” value was “inactive”. With `CCc1ccccc1NC(=O)CN1CCN(CC(=O)NCc2ccc(Cl)cc2)CC1` the “activity change, negative = inhibition” value was “inactive”. `COc1cc(/C=N/N2C(=O)C3C4C=CC(CC4)C3C2=O)ccc1O` (centres undefined) was tested, and the “activity change, negative = inhibition” value was “inactive”. With `C[C@H]1CN([C@@H](C)CO)S(=O)(=O)c2ccc(-c3ccncc3)cc2O[C@H]1CN(C)Cc1ccc(Oc2ccccc2)cc1` the “activity change, negative = inhibition” value was “inactive”. With `CS(=O)(=O)N(CC(=O)Nc1ccc(S(=O)(=O)N2CCOCC2)cc1)c1ccccc1Br` the “activity change, negative = inhibition” value was “inactive”. For `Cc1nn(C)cc1-c1n[nH]c(=S)n1-c1ccc(F)cc1`, the “activity change, negative = inhibition” value was “inactive”. For `CCOC(=O)C1=C(C)Nc2nnnn2C1c1ccc(OC)c(Br)c1` (centres undefined), the “activity change, negative = inhibition” value was “inactive”. For `CCOC(=O)c1cc([N+](=O)[O-])sc1N`, the “activity change, negative = inhibition” value was “inactive”. With `COc1ccc(/C=C2\CCC(C3CCCC3)C2=O)cc1` (centres undefined) the “activity change, negative = inhibition” value was “inactive”. `CC(=O)Nc1ccc(NC(=O)CN2CCN(c3ccccn3)CC2)cc1` was tested, and the “activity change, negative = inhibition” value was “inactive”.

Same assay, conditions: recombinant TcdB glycohydrolase activity, at 21 µM (top of the series)
With `COCC(=O)N1CC[C@@H]2[C@H]1c1cc(-c3cccc(OC)c3)ccc1N(C)[C@H]2CO` the “activity change, negative = inhibition” value was “inactive”.
